Experiments:
Tau protein = experiment: Expression of Tau in brain of AD-induced animal model by fluorescence microscopy; assay type: in vivo; settings: mouse brain, 1 mg/kg i.p. once every 3 days for 2 weeks, FIG. 3
Experimental: To determine the therapeutic effect on Alzheimer's Disease (AD), the effects on amyloid beta monomer (monomeric Aβ, mAβ) and Tau protein, which are biomarkers of AD, were analyzed in an AD-induced animal model.
APP/PS/Tau transgenic mice were used as an AD-induced animal model. The compound of formula (1a-1) was administered intraperitoneally once every 3 days at a concentration of 1 mg/kg to 12-week-old transgenic mice for 2 weeks, and the expression of mAβ and Tau proteins in the mouse brain was measured after 1 and 4 weeks. After anesthetizing the mouse, the cervical region was incised with a dissecting tool, and then the occipital region was incised to remove both sides of the skull. The brain was washed with phosphate buffered saline (PBS) and fixed with 4% paraformaldehyde (Sigma, St Louis, MO, USA) for 12 hours at 4 °C. These were cut to a thickness of approximately 10 μm using a vibratome, and hippocampus and cortex sections were collected and placed in 24 wells. PBS was added to the wells containing the fixed tissue sections, and fluorescent nanoparticles (QD565, red fluorescence) conjugated with anti-amyloid antibodies and anti-Tau antibodies (Santa Cruz, USA) were added to each 2 μM, and reacted at 4 °C for 12 hours. The expression of mAβ and Tau was confirmed by fluorescence microscopy.

[1] = test system: dopamine transporter (DAT); experiment: Differentiation of pluripotent stem cells into dopaminergic neurons: dopamine transporter; assay type: cell-based; settings: 5-week differentiation sample, FIG. 5B
Experimental: Pluripotent stem cells were seeded in Aggre Well plates (stemcell) at 5,000 cells/microwell and cultured for 5 days in E6 medium (GIBCO) to induce embryonic body (EB) formation. For neural rosette formation, EBs were seeded into 35 mm dishes in groups of 30 and cultured for 10 days in N2bF medium. The 35 mm dishes were used after being coated with 15 μg/ml of poly-L-ornithine (sigma) and 1 μg/ml of fibronectin (sigma). The N2Bf medium composition was DMEM/F12 (GIBCO), N2 supplement (stemcell) 1×, 10% NEAA (GIBCO), 55 µM beta-Mercaptoethanol (GIBCO), bFGF (peprotech) 20 ng/ml. For the formation of spherical neural masses (SNMs), rosette masses were sliced and cultured in petri dishes with N2bF medium. SNMs were no larger than 500 UM in size and were sliced and cultured for 3 to 4 passages. After subculture of SNM, the clumps were broken into small pieces using a tungsten mesh (Nilaco) for the neural progenitor cell (NPC) culture step, and then attached to a PLO/FN-coated dish and cultured in N2bF medium. […]
The effect of the compound of formula (1a-1) on differentiation into neurons was evaluated by comparing the expression of tyrosine hydroxylase (TH) and dopamine transporter (DAT) depending on the presence or absence of treatment with the compound of formula (1a-1).

α-synuclein = α-synuclein expression in differentiated SH-SY5Y dopaminergic neurons by western blot; assay type: cell-based, human; settings: FIG. 6
Experimental: To analyze the effect on the expression of tyrosine hydroxylase (TH) and α-synuclein as neuron-specific proteins, western blot was performed.
SH-SY5Y cell line was treated with retinoic acid and 12-O-tetradecanoylphorbol-13-acetate (TPA) to induce differentiation into TH-secreting neurons for 6 days.
Differentiated dopaminergic neurons were lysed in PRO-PREP (Intronbio), a cell lysis solution containing protease inhibitor cocktail (Gendepot), and electrophoresed in 10% SDS polyacrylamide gels at 20 μg/well. Transfer was performed using PVDF (Merck millipore) as a membrane, and tyrosine hydroxylase antibody, «-synuclein antibody (Cell signaling), and β-actin antibody (Santa Cruz) were used for reaction for more than 2 hours. Protein expression was detected by staining with ECL substrate (Biorad) for development and graphed using the image J program.

C57BL/6 mice = experiment: Survival in sepsis induced by cecal ligation and puncture (CLP); assay type: in vivo, mouse; settings: 100 ng/mouse (5 μg/kg) i.v. at 6 and 16 hours after CLP; FIG. 7
Experimental: C57BL/6 mice aged 7-8 weeks were purchased from Jabio (Suwon, Gyeonggi-do) and sepsis was induced by cecal ligation and puncture (CLP).
Specifically, after anesthesia using 150 mg/kg of ketamine and 17.5 mg/kg of rompun, an abdominal incision of 1-2 cm was made to expose the cecum to induce sepsis. The cecum was ligated with 6-0 silk sutures at the distal end of the ileocecal valve, and a puncture was made with an 18-gauge needle. The perforated cecum was gently squeezed to push out 1-2 cm of feces, and the cecum was then retracted back into the abdominal cavity. The abdomen was then closed and pre-warmed normal saline (2.5 mL/100 g body weight) was injected into the mouse abdominal cavity immediately after the procedure. 6 and 16 hours after CLP treatment, the compound of formula (1a-1) was dissolved in phosphate buffered saline (PBS) and injected intravenously at 100 ng/mouse (5 μg/kg), and survival was examined for 10 days. […] In addition, as a drug-negative control, survival was examined in mice that received only PBS after CLP treatment.
For comparison, we also examined the survival of a control group treated with fingolimod (FTY720), a known S1P modulator, instead of the compound of formula (1a-1) under the same conditions.

## CCCCCCCCCCCCCC[C@H]1OP(=O)(O)O[C@H]1[C@@H](N)CO.Cl [formula (1a-1), (4S,5R)-4-((S)-1-amino-2-hydroxyethyl)-2-hydroxy-5-tetradecyl-1,3,2-dioxaphosphoran-2-oxide hydrochloride]
Tau protein; 1 week and 4 weeks after
  red fluorescence for Tau: negligible red fluorescence for mAβ and Tau
Tau protein
  expression of Tau protein: significantly reduced
[1]
  DAT glycosylation (western blot): DAT glycosylation is increased
α-synuclein; differentiated dopaminergic neurons treated with rotenone (RT)
  expression of α-synuclein: the expression of α-synuclein increased by rotenone was decreased
α-synuclein; rotenone-treated differentiated dopaminergic neurons
  effectiveness relative to resveratrol (control drug), α-synuclein expression: more effective than resveratrol
C57BL/6 mice
  deaths after 10 days: no deaths
  survival for 10 days: more than 80%
